Measurements taken from patent publication US20090221559A1 (priority 2005, published 2009).
Read-outs that look alike come from different tables or passages of the source.

Experiments:
[1] = tested on: HCV replicon RNA replication in Huh-7 luc/neo (Huh-Luc) cells; assay: HCV replicon assay (stable replicon cell reporter assay, luciferase read-out); assay type: cell-based, HCV type 1b
Protocol: (§1) The compounds of formula (I) were tested for anti-HCV activity in an assay determining their activity against NS5b polymerase and in an HCV replicon assay
The compounds of the present invention were examined for activity in the inhibition of HCV RNA replication in a cellular assay. […] The cellular assay was based on a bicistronic expression construct, as described by Lohmann et al. (1999) Science vol. 285 pp. 110-113 with modifications described by Krieger et al. (2001) Journal of Virology 75: 4614-4624, in a multi-target screening strategy. In essence, the method was as follows.
The assay utilized the stably transfected cell line Huh-7 luc/neo (hereafter referred to as Huh-Luc). This cell line harbored an RNA encoding a bicistronic expression construct comprising the wild type NS3-NS5B regions of HCV type 1b translated from an Internal Ribosome Entry Site (IRES) from encephalomyocarditis virus (EMCV), preceded by a reporter portion (FfL-luciferase), and a selectable marker portion (neo^R, neomycine phosphotransferase). The construct was bordered by 5′ and 3′ NTRs (non-translated regions) from HCV type 1b. Continued culture of the replicon cells in the presence of G418 (neo^R) was dependent on the replication of the HCV RNA. The stably transfected replicon cells that expressed HCV RNA, which replicated autonomously and to high levels, encoding inter alia luciferase, were used for screening the antiviral compounds.
The replicon cells were plated in 384 well plates in the presence of the test and control compounds which were added in various concentrations. Following an incubation of three days, HCV replication was measured by assaying luciferase activity (using standard luciferase assay substrates and reagents and a Perkin Elmer ViewLux™ ultraHTS microplate imager). […] The inhibitory activity of the compound on luciferase activity was monitored on the Huh-Luc cells, enabling a dose-response curve for each test compound.

[2] = target: T1, HCV NS5B polymerase (His-tagged, C-terminal 21 amino acid deleted NS5B, HC-J4) (Hepatitis C virus genotype 1b, UniProt O92972); assay: NS5b polymerase assay (biochemical RdRp assay, 3H-GTP incorporation, SPA beads); design: species or system HCV genotype 1b
T1 construct: The cDNA encoding NS5B amino acid 1-570 (HC-J4, genotype 1b); His tag (His6, from pET-21b) (C); made in house; host or cells: E. coli BL21 (DE3)
Protocol: as §1
The cDNA encoding NS5B amino acid 1-570 (HC-J4, genotype 1b, pCV-J4L6S, genebank accession number AF054247) was subcloned into the Nhe I and Xho I restriction sites of pET-21b. Expression of the subsequent His-tagged C-terminal 21 amino acid deleted NS5B was performed as follows:
Following transformation in BL21 (DE3) competent cells, bacterial cells were grown in 22 liter LB/Amp media until to reach OD600=0.4-0.6. Protein expression was induced by addition of IPTG 0.4 mM, supplemented with 10 μM MgCl2, and incubated for 14-16 hrs at 20° C. Cells were harvested, resuspended in lysis buffer (20 mM Tris-HCl pH=7.5, 0.3 M NaCl, 10% glycerol, 0.1% NP40, 4 mM MgCl2, 14 mM beta-mercaptoethanol, with tablet of EDTA-free protease cocktail inhibitors) and lysed by sonification. The cell lysate was cleared by high-speed centrifugation (20K×g for 30 min), captured on Ni-NTA beads for 70 min at 4° C., and eluted with 25 mM Hepes pH 7.5, 0.5 M NaCl, 10% glycerol, 14 mM BME, 500 mM imidazole. The eluent was dialysed against 25 mM Hepes pH 7.5, 10% glycerol, 50 mM NaCl, 14 mM BME, after which the protein was further purified by heparin chromatography using the same buffer with 1 M NaCl for elution. Fractions containing pure protein were collected, dialyzed against storage buffer 25 mM Hepes pH=7.5, 300 mM NaCl, 10% glycerol, 14 mM BME), and flash-freezed in liquid nitrogen.
Measurement of HCV NS5B polymerization activity was performed by evaluating the amount of radiolabeled GTP incorporated by the enzyme in a newly synthesized RNA using heteropolymeric RNA template/primer. The highthroughput RdRp assay was carried out in 384-well plates using 200 nM enzyme, 0.1 μCi of ^3H GTP, 5 mM MgCl2, 600 nM GTP, 30 nM PolyC, 300 nM 5′-biotinylated oligo(rG13)/poly(rC) in 20 mM Tris pH 7.5, 21 mM KCl, 2.5 mM DTT, 16.7 mM NaCl and 0.17 mM EDTA. Test compounds were dissolved in dimethylsulfoxide. The test compounds were added to the preformed polymerase-template complex, and incubated at room temperature (RT) for 15 min before the addition of NTPs. The 30-μl reaction was terminated after 2 h at 25° C. upon addition of 30-μl PVT-SPA beads (Amersham Biosciences RPNQ0009, 5 mg/ml in 0.5 M EDTA).

[3] = Hepatitis C virus, Huh-7, 72 h, read-out: Replicon Assay EC50, Huh-Luc cells, three days incubation, luciferase activity
[4] = NS5B Polymerase Assay IC50, 200 nM enzyme, 3H-GTP incorporation, 2 h at 25° C.
[5] = Huh-Luc cells, three days incubation, luciferase activity, read-out: Replicon Assay EC50
[6] = 200 nM enzyme, 3H-GTP incorporation, 2 h at 25° C., read-out: NS5B Polymerase Assay IC50
[7] = read-out: NS5B Polymerase Assay IC50
[8] = Hepatitis C virus, Huh-7, 72 h, read-out: Replicon Assay EC50 (μM), Huh-Luc cells, incubation of three days, luciferase activity
[9] = NS5B Polymerase Assay IC50 (μM)

T1 sequence (O92972 2417-3000, looked up, stated change not applied): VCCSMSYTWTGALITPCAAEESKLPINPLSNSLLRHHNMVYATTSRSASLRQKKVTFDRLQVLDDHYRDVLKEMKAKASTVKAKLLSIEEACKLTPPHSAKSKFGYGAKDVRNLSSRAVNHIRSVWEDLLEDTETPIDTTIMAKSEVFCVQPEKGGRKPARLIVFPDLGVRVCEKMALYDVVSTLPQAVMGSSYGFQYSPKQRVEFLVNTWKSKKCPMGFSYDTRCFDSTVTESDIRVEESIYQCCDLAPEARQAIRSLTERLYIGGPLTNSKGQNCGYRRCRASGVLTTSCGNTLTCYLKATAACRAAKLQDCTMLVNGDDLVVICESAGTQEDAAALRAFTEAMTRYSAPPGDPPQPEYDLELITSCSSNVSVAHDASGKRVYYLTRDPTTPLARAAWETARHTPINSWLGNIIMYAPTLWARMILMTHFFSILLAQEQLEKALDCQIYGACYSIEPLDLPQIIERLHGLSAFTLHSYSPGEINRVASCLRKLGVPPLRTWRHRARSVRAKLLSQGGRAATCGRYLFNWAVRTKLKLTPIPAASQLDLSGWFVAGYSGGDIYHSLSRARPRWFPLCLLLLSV

For `CCCOc1ccc(C2C3=C(CC(C)(C)CC3=O)Nc3ccccc3N2C(C)=O)cc1OC` (stereo not shown) [compound 129], the EC50 [1, 3] was > 32 µM and the IC50 [2, 4] was > 42.7 µM.

Compound `CC(=O)N1c2ccccc2NC2=C(C(=O)CC(C)(C)C2)C1c1ccc(OCc2ccccc2)cc1OCc1ccccc1` (stereo not shown) [compound 144, 10-acetyl-11-[2,4-dibenzyloxyphenyl]-3,3-dimethyl-2,3,4,5,10,11-hexahydro-1H-dibenzo[b,e][1,4]diazepin-1-one] has an EC50 [1, 3] of 3.1 µM and an IC50 [2, 4] of 23 µM.

For `CCCCCC(=O)N1c2ccccc2NC2=C(C(=O)CC(c3ccc(OC)c(OC)c3)C2)C1c1ccc(Cl)cc1` (mixture of isomers) [compound 185], the EC50 [1, 5] was 4.79 µM and the IC50 [2, 6] was > 33.3 µM.

For `Cc1ccc(C2CC(=O)C3=C(C2)Nc2ccccc2N(C(=O)C(F)(F)F)C3c2ccccc2Cl)cc1` (stereo not shown) [compound 169], the EC50 [1, 5] was 17.7 µM and the IC50 [2, 6] was > 33.3 µM.

In the case of `O=C1CC(c2ccccc2OCc2ccccc2)CC2=C1C(c1ccc(Cl)cc1Cl)Nc1ccccc1N2` (single isomer, unassigned) [compound 417, 3-(2-Benzyloxyphenyl)-11-(2,4-dichlorophenyl)-2,3,4,5,10,11-hexahydro-dibenzo[b,e][1,4]diazepin-1-one], the EC50 ([1]; read-out: Replicon Assay EC50, Huh-Luc cells, incubation of three days, luciferase activity) is reported as 8.33 µM and the IC50 [2, 7] is reported as > 42.7 µM.

`CC(=O)N1c2cccc(C#N)c2NC2=C(C(=O)CC(C)(C)C2)C1c1ccc(Cl)cc1Cl` (stereo not shown) [compound 316] gave an EC50 [1, 3] of 15.4 µM and an IC50 [2, 4] of 6.97 µM.

`CC(=O)N1c2ccccc2NC2=C(C(=O)CC(C)(C)C2)C1c1cc2c(cc1Br)OCO2` (stereo not shown) [compound 277] was tested, and the EC50 [1, 3] was 13.6 µM and the IC50 [2, 4] was > 42.7 µM.

With `CCCCCC(=O)N1c2ccccc2NC2=C(C(=O)CC(c3ccccc3)C2)C1c1ccccc1F` (stereo not shown) [compound 224] the EC50 [1, 5] was 16.1 µM and the IC50 [2, 6] was > 33.3 µM.

With `COc1ccc(C2CC(=O)C3=C(C2)Nc2ccccc2NC3c2cccc(Oc3ccccc3)c2)cc1` (stereo not shown) [compound 331] the EC50 [1, 8] was 7.44 µM and the IC50 [2, 9] was > 42.7 µM.

For `CC(=O)N1c2ccccc2NC2=C(C(=O)CC(C)(C)C2)C1c1ccc(OCc2ccccc2Cl)cc1` (stereo not shown) [compound 148, 10-acetyl-11-[4-(2-chlorobenzyloxy)phenyl]-3,3-dimethyl-2,3,4,5,10,11-hexahydro-1H-dibenzo[b,e][1,4]diazepin-1-one], the EC50 [1, 3] was 3.23 µM and the IC50 [2, 4] was 83.7 µM.

With `CC(=O)N1c2ccccc2NC2=C(C(=O)CC(C)(C)C2)C1c1cccc(O)c1` (stereo not shown) [compound 117] the EC50 [1, 3] was > 32 µM and the IC50 [2, 4] was > 42.7 µM.

With `CN(C)c1ccc(C2C3=C(CC(C)(C)CC3=O)Nc3ccccc3N2C(=O)C(F)(F)F)cc1` (stereo not shown) [compound 108] the EC50 [1, 3] was > 32 µM and the IC50 [2, 4] was > 42.7 µM.

In the case of `CC(C)CC(=O)N1c2ccccc2NC2=C(C(=O)CC(C)(C)C2)C1c1cccnc1` (stereo not shown) [compound 270], the EC50 [1, 3] is reported as 25.5 µM and the IC50 [2, 4] is reported as > 33.3 µM.

In the case of `CCC(=O)N1c2ccccc2NC2=C(C(=O)CC(C)(C)C2)C1c1ccc(-c2ccccc2[N+](=O)[O-])o1` (stereo not shown) [compound 241], the EC50 [1, 3] is reported as 17.1 µM and the IC50 [2, 4] is reported as > 42.7 µM.

`CC1(C)CC(=O)C2=C(C1)Nc1ccccc1NC2c1ccc(F)cc1F` (stereo not shown) [compound 441, 11-(2,4-difluorophenyl)-3,3-dimethyl-2,3,4,5,10,11-hexahydro-1H-dibenzo[b,e][1,4]diazepin-1-one] was tested, and the EC50 [1, 8] was > 100 µM and the IC50 [2, 9] was > 133 µM.

Work on “3-(2-benzyloxyphenyl)-11-[3-(4-chlorobenzoyloxy)phenyl]-2,3,4,5,10,11-hexahydro-dibenzo[b,e][1,4]diazepin-1-one [compound 513]” yielded an EC50 ([1]; Huh-Luc cells, incubation of three days, luciferase activity, read-out: Replicon Assay EC50) of 3.67 µM and an IC50 [2, 7] of 70.1 µM.

With `CC1CC(=O)C2=C(C1)Nc1ccccc1NC2c1ccc(Cl)cc1Cl` (stereo not shown) [compound 422, 11-(2,4-dichlorophenyl)-3-methyl-2,3,4,5,10,11-hexahydro-1H-dibenzo[b,e][1,4]diazepin-1-one] the EC50 [1, 8] was > 100 µM and the IC50 [2, 9] was > 133 µM.

With `O=C1CC(c2ccccc2)CC2=C1C(c1ccc(Cl)cc1)Nc1ccccc1N2` (stereo not shown) [compound 325] the EC50 [1, 8] was 16.3 µM and the IC50 [2, 9] was > 42.6 µM.

For `CCOc1ccccc1C1C2=C(CC(c3ccc(OC)cc3)CC2=O)Nc2ccccc2N1C(C)=O` (stereo not shown) [compound 179], the EC50 [1, 5] was 8.54 µM and the IC50 [2, 6] was > 42.7 µM.

In the case of `CC1(C)CC(=O)C2=C(C1)Nc1ccccc1NC2c1ccc(Oc2ccccc2Br)cc1` (stereo not shown) [compound 442, 11-[4-(2-bromophenoxy)phenyl]-3,3-dimethyl-2,3,4,5,10,11-hexahydro-1H-dibenzo[b,e][1,4]diazepin-1-one], the EC50 [1, 8] is reported as 2.71 µM and the IC50 [2, 9] is reported as > 133 µM.

Compound `O=C1C[C@@H](c2ccccc2OCc2ccccc2)CC2=C1C(c1cccc(OC(=O)c3ccc(Cl)cc3)c1)Nc1ccccc1N2` (single isomer, unassigned) [compound 512, 11-[3-(4-Chlorobenzoyloxy)phenyl]-3-(2-benzyloxyphenyl)-2,3,4,5,10,11-hexahydro-dibenzo[b,e][1,4]diazepin-1-one] has an EC50 [1, 8] of 8.42 µM and an IC50 [2, 9] of 84.5 µM.

`CCn1c2ccccc2c2cc([C@@H]3Nc4ccccc4NC4=C3C(=O)C[C@@H](c3ccc(OC)c(OC)c3)C4)ccc21` [compound 477] was tested, and the EC50 [1, 8] was 4.49 µM and the IC50 [2, 9] was > 42.7 µM.

`CC1(C)CC(=O)C2=C(C1)Nc1ccccc1NC2c1ccc(Cl)cc1Cl` (stereo not shown) [compound 423, 11-(2,4-dichlorophenyl)-2,3,4,5,10,11-hexahydro-3,3-dimethyl-1H-dibenzo[b,e][1,4]diazepin-1-one] was tested, and the EC50 [1, 8] was 26.4 µM and the IC50 [2, 9] was 37.9 µM.

With `COc1ccc(C2CC(=O)C3=C(C2)Nc2ccccc2NC3c2ccc(OCc3ccccc3)c(OC)c2)cc1` (stereo not shown) [compound 385] the EC50 [1, 8] was 3.54 µM and the IC50 [2, 9] was > 42.7 µM.

With `COc1ccc(C2CC(=O)C3=C(C2)Nc2ccccc2NC3c2ccccc2OC(C)C)cc1OC` (stereo not shown) [compound 370] the EC50 [1, 8] was 3.43 µM and the IC50 [2, 9] was > 42.7 µM.

Compound `CC1(C)CC(=O)C2=C(C1)Nc1ccc(C#N)cc1NC2c1ccc(Cl)cc1Cl` (stereo not shown) [compound 473] has an EC50 [1, 8] of 20 µM and an IC50 [2, 9] of 50 µM.

`CC1(C)CC(=O)C2=C(C1)Nc1ccccc1NC2c1ccc(OCc2ccccc2)c(Cl)c1` (stereo not shown) [compound 439, 11-[4-benzyloxy-3-chlorophenyl]-3,3-dimethyl-2,3,4,5,10,11-hexahydro-1H-dibenzo[b,e][1,4]diazepin-1-one] showed an EC50 [1, 8] of 4.33 µM and an IC50 [2, 9] of 3.63 µM.

In the case of `CCOc1cc(C2Nc3ccccc3NC3=C2C(=O)CC(c2ccc(OC)c(OC)c2)C3)cc(Br)c1O` (stereo not shown) [compound 399], the EC50 [1, 8] is reported as 19.4 µM and the IC50 [2, 9] is reported as > 42.7 µM.

For `O=C1CC(c2ccccc2OCc2ccccc2)CC2=C1C(C(Br)=Cc1ccccc1)Nc1ccccc1N2` (mixture of isomers) [compound 497], the EC50 [1, 8] was 3.79 µM and the IC50 [2, 9] was > 133 µM.
